# Biological target: human PDE4B1 (Homo sapiens (Human), UniProt Q07343)
# Experiment: cAMP HTRF assay to determine the activity of hPDE4B1
# Format: biochemical
# Conditions: IC50 inhibition of PDE4B; human recombinant PDE4B1, cAMP HTRF assay
# Protocol: Biological Testing cAMP HTRF® Assay to Determine the Activity of hPDE4B1
# The inhibiting effect of the compounds on the enzyme activity of human PDE4B1 was measured by the quantification of 5′-adenosine monophosphate (5′-AMP), which is formed from 3′,5′-cyclic adenosine monophosphate (cAMP). Human recombinant enzyme, expressed in Sf9 cells, and the HTRF (homogeneous time-resolved fluorescence) detection method were used in the assay.
# The test compound or water (control) was mixed with the human recombinant PDE4B1 enzyme (4.8 U) in a buffer consisting of 44.4 mM tris-HCl, 5.28 mM MgCl2, 2.64 mM DTT and 0.044% Tween 20 (pH 7.8). After adding the cAMP enzyme substrate (final concentration 40 nM), the mixture was incubated for 30 minutes at room temperature. Then a fluorescence acceptor (Dye2 marked with cAMP), a fluorescence donor (anti-cAMP antibody marked with a europium cryptate) and the non-specific phosphodiesterase inhibitor IBMX (3-isobutyl-1-methylxanthine; final concentration 1 mM) were added. After 60 min the fluorescence transfer, which correlates with the amount of remaining cAMP, was measured with a microplate reader (Rubystar, BMG) at λex=337 nm, λem=620 nm and λem=665 nm. The enzyme activity was calculated from the quotient formed from the measured signal at 665 nm and that at 620 nm. The result was expressed as the percentage inhibition of enzyme activity of the control (without PDE4 inhibitor). The enzyme was omitted for measurement of the basal control.
# [N. Saldou et al., Comparison of recombinant human PDE4 isoforms: interaction with substrate and inhibitors, Cell. Signal. Vol. 10, No. 6, 427-440, 1998]. Several compounds according to the invention are tested in the above-described assay.
# human PDE4B1, sequence (Q07343 whole entry): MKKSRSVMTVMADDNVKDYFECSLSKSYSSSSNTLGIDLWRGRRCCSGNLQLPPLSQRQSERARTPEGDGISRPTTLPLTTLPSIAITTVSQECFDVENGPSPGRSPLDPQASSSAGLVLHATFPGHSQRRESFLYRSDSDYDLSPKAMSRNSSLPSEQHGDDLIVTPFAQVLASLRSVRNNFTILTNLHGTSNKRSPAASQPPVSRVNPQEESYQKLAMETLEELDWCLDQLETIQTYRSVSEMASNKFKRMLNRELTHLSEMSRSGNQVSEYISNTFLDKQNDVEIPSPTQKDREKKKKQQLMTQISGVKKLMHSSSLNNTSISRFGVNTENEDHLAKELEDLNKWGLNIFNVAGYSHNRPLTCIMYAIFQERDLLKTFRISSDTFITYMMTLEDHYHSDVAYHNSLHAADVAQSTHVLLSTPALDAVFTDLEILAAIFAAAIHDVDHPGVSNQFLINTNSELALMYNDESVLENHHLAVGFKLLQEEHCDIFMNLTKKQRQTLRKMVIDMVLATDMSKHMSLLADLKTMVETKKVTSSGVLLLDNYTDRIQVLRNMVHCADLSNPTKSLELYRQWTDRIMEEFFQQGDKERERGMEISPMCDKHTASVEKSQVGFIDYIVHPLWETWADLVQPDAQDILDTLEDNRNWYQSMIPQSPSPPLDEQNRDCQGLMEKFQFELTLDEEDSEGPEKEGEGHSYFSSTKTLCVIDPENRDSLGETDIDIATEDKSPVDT
row,Compound,IC50
1,"1-[5-(3-Carbamoyl-phenyl)-pyrimidin-2-yl]-N-(2-hydroxy-ethyl)-N-methyl-spiro[1,2-dihydro-indole-3,1′-cyclopropane]-6-carboxylic acid amide [Compound 198]",< 0.1 µM
2,"1-[5-(3-Cyano-phenyl)-pyrimidin-2-yl]-N-(2-hydroxy-ethyl)-N-methyl-spiro[1,2-dihydro-indole-3,1′-cyclo-propane]-6-carboxylic acid amide [Compound 193]",< 0.1 µM
3,"1-[5-(3-Cyano-phenyl)-pyrimidin-2-yl]-N-(2-hydroxy-ethyl)-N-methyl-spiro[1,2-dihydro-indole-3,1′-cyclopropane]-6-carboxylic acid amide [Compound 194]",< 0.1 µM
4,"4-[1-(5-Phenyl-pyrimidin-2-yl)-spiro[1,2-dihydro-indole-3,1′-cyclopropane]-6-carbonyl]-piperazine-2,6-dione [Compound 202]",0.1 to 1 µM
5,"4-[1-[5-(3-Fluorophenyl)-pyrimidin-2-yl]-spiro[1,2-dihydro-indole-3,1′-cyclopropane]-6-carbonyl]-piperazin-2-one [Compound 188]",< 0.1 µM
6,"4-[1-[5-(3-Methoxyphenyl)-pyrimidin-2-yl]-spiro[1,2-dihydro-indole-3,1′-cyclopropane]-6-carbonyl]-piperazin-2-one [Compound 189]",< 0.1 µM
7,"O=C(c1ccc2c(c1)N(c1ncc(-c3ccccc3F)cn1)CC21CC1)N1CCOCC1 [Compound 1, [1-[5-(2-Fluorophenyl)-pyrimidin-2-yl]-spiro[1,2-dihydro-indole-3,1′-cyclopropane]-6-yl]-morpholin-4-yl-methanone]",< 0.1 µM
8,"CN(C)C(=O)c1ccc2c(c1)N(c1ncc(-c3ccccc3F)cn1)CC21CC1 [Compound 2, 1-[5-(2-Fluorophenyl)-pyrimidin-2-yl]-N,N-dimethyl-spiro[1,2-dihydro-indole-3,1′-cyclopropane]-6-carboxylic acid amide]",< 0.1 µM
9,"O=C1CN(C(=O)c2ccc3c(c2)N(c2ncc(-c4ccccc4F)cn2)CC32CC2)CCN1 [Compound 4, 4-[1-[5-(2-Fluorophenyl)-pyrimidin-2-yl]-spiro[1,2-dihydro-indole-3,1′-cyclopropane]-6-carbonyl]-piperazin-2-one]",< 0.1 µM
10,"O=C(c1ccc2c(c1)N(c1ncc(-c3ccccc3F)cn1)CC21CC1)N1CCNCC1 [Compound 5, [1-[5-(2-Fluorophenyl)-pyrimidin-2-yl]-spiro[1,2-dihydro-indole-3,1′-cyclopropane]-6-yl]-piperazin-1-yl-methanone]",< 0.1 µM
11,"O=C(c1ccc2c(c1)N(c1ncc(-c3ccccc3Cl)cn1)CC21CC1)N1CCOCC1 [Compound 6, [1-[5-(2-Chlorophenyl)-pyrimidin-2-yl]-spiro[1,2-dihydro-indole-3,1′-cyclopropane]-6-yl]-morpholin-4-yl-methanone]",0.1 to 1 µM
12,"O=C(c1ccc2c(c1)N(c1ncc(-c3ccccc3)cn1)CC21CC1)N1CCOCC1 [Compound 7, Morpholin-4-yl-[1-(5-phenyl-pyrimidin-2-yl)-spiro[1,2-dihydro-indole-3,1′-cyclopropane]-6-yl]-methanone]",< 0.1 µM
13,"O=C(c1ccc2c(c1)N(c1ncc(-c3ccc(F)cc3F)cn1)CC21CC1)N1CCOCC1 [Compound 8, [1-[5-(2,4-Difluoro-phenyl)-pyrimidin-2-yl]-spiro[1,2-dihydro-indole-3,1′-cyclopropane]-6-yl]-morpholin-4-yl-methanone]",< 0.1 µM
14,"CC1(C)CN(c2ncc(-c3ccccc3F)cn2)c2cc(C(=O)N3CCOCC3)ccc21 [Compound 9, [1-[5-(2-Fluorophenyl)-pyrimidin-2-yl]-3,3-dimethyl-1,2-dihydro-indol-6-yl]-morpholin-4-yl-methanone]",0.1 to 1 µM
15,"Cc1ccccc1-c1cnc(N2CC3(CC3)c3ccc(C(=O)N4CCOCC4)cc32)nc1 [Compound 12, Morpholin-4-yl-[1-(5-o-tolyl-pyrimidin-2-yl)-spiro[1,2-dihydro-indole-3,1′-cyclopropane]-6-yl]-methanone]",< 0.1 µM
